Columns and labels:
[1] = molecular target: T1, human orexin-2 receptor (OX2R) (Homo sapiens, UniProt O43614); assay: Human OX2R IP1 assay; format: cell-based; conditions: T-Rex CHO cells stably overexpressing human OX2R; IP1 accumulation; 1 hr at 37 degrees C; mean EC50
T1 construct: expressed in transfected cells
T1 sequence (O43614 1-444): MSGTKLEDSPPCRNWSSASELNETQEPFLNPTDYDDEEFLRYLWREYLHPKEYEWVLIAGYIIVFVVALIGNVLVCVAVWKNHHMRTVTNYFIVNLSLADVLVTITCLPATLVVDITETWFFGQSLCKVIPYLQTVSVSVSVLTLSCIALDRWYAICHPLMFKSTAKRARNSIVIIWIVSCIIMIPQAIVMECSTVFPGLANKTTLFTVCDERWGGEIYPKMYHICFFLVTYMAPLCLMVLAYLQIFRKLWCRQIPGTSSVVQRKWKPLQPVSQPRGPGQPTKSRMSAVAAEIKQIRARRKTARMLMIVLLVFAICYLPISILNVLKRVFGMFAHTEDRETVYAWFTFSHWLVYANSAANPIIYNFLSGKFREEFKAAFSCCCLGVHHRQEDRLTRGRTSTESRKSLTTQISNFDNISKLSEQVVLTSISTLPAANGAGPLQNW
Method in brief: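 T-Rex CHO cells stably expressing human OX2R, doxycycline-induced (1 μg/mL) overnight, treated with compounds 1 h at 37 °C in pH 7.4 buffer with 50 mM LiCl. IP1 accumulation read by HTRF competitive immunoassay after 1 h at room temperature; agonist EC50 reported as mean ± S.E.M.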

MDCK-MDR1 cells = assay: MDCK-MDR1 permeability assay; format: in vitro ADME; conditions: MDCK-MDR1 cells; for Efflux ratio (ER): Papp B→A divided by Papp A→B, 3 μM, 2 hours; for Papp A → B (10^−6 cm/s): test compound 3 μM, 2 hours at 37 degrees C, apical to basolateral
Method in brief: (§1)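 Receiver and donor compartments were analysed by LC-MS/MS after a 2 h incubation at 37 °C of 3 μM compound in HBSS on MDCK-MDR1 monolayers, run in both directions with Lucifer Yellow (100 μM) as integrity marker. Apparent permeability came from translocation rate, insert area and initial concentration; B→A/A→B Papp gave the efflux ratio, alongside percent recovery.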

human hepatocytes = assay: Hepatocytes stability assay (human hepatocytes); format: in vitro ADME; conditions: for CLint (μL/min/million cells): cryopreserved human hepatocytes (pool of 50 mixed gender), 1 μM test compound, 1×10^6 cell/mL, 37 degrees C; for Extraction Ratio (ER): human hepatocytes, scaled hepatic clearance divided by liver blood flow (well-stirred model, fu assumed unity)
Method in brief: (§2)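 Compound at 1 μM (0.1% DMSO) was incubated with cryopreserved pooled human hepatocytes, 1×10^6 cells/mL in Krebs-Henseleit buffer, at 37 °C, sampled up to 240 min. Parent depletion by LC-MS/MS; half-life from first-order decay gave CLint, scaled to hepatic clearance by well-stirred model (fu assumed 1) and extraction ratio.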

MDR1 = assay: MDCK-MDR1 permeability assay; format: in vitro ADME; conditions: dog, MDCK-MDR1, MDCK-MDR1 cells; for efflux ratio at 2 h, 3 μM: Papp B→A divided by Papp A→B, read-out: Efflux ratio (ER); for Papp A→B at 2 h, 3 μM: test compound 3 μM, 2 hours at 37 degrees C, apical to basolateral
Method in brief: as §1

[2] = Hepatocytes stability assay (human hepatocytes); format: in vitro ADME; conditions: both sexes, human, cryopreserved hepatocytes, cryopreserved human hepatocytes (pool of 50 mixed gender); 1 μM test compound; 1×10^6 cell/mL; 37 degrees C; read-out: CLint (μL/min/million cells)
Method in brief: as §2

Sprague-Dawley rats = assay: Assessment of wake promotion in Sprague-Dawley rats (EEG/EMG); format: in vivo, rat; conditions: male Sprague-Dawley rats; PO; 3 mpk; dosed at ZT5; 6-hour post-dose period
Procedure: Wake promotion was assessed using electroencephalography (EEG) and electromyography (EMG) in adult male Sprague-Dawley rats. All rats (Charles River Laboratories, Raleigh, NC, USA) were intraperitoneally implanted with telemetry devices (F50-EEE, Data Sciences International Inc., MN, USA) under isoflurane anesthesia. For EEG, stainless steel screws were implanted over frontal cortex and parietal cortex, and reference screws were placed over cerebellum. Additionally, an electrode was placed in neck muscle for EMG. Rats were given carprofen post-surgery and underwent a 7 to 10-day recovery period. Rats habituated to the experimental room for 7 days and were maintained on a 12-hour light-dark cycle.
EEG and EMG data were recorded using the DSI telemetry system and Ponemah software (Data Sciences International Inc., MN, USA). Sleep-wake stages were scored both manually and with Somnivore, a supervised machine learning software platform, in 10 second epochs. Records were visually inspected as needed post-processing.
All test compounds were dissolved in 5% DMSO and suspended in 95% saline with 0.5% methylcellulose and 0.5% tween. […] Unless otherwise indicated, all compounds were dosed orally. Recordings for each rat were initiated immediately after dosing and lasted for 6 hours post-dose.
Two key endpoints include wakefulness time and cortical activation time. Wakefulness time is derived from the sleep-wake stage analysis. Cortical activation time is based on the duration in which frontal gamma oscillatory activity (30-100 Hz), a key feature of wakefulness, was elevated relative to a pre-treatment baseline. Mean cortical activation time was computed relative to vehicle treatment for the 6-hour post-dose period.

With Cc1ncnc2c1[C@H]1CC[C@H](CC1)OC[C@H]1[C@@H](NS(C)(=O)=O)CCCN1C(=O)CO2 (stereo in doubt) [Compound 72] the EC50 [1] was < 10 nM, the “Efflux ratio (ER)” value (MDCK-MDR1 cells) was 49 and the “Papp A → B (10^−6 cm/s)” value (MDCK-MDR1 cells) was <0.091 10^−6 cm/s. The “CLint (μL/min/million cells)” value (human hepatocytes) was <1.9 μL/min/million cells and the “Extraction Ratio (ER)” value (human hepatocytes) was <0.22.

With Cc1ccnc2c1[C@H]1CC[C@H](CC1)OCC1[C@@H](NS(=O)(=O)C3CCOC3)CCCN1C(=O)CO2 (stereo in doubt) [Compound 90] the EC50 [1] was < 10 nM, the “Efflux ratio (ER)” value (MDCK-MDR1 cells) was 48 and the “Papp A → B (10^−6 cm/s)” value (MDCK-MDR1 cells) was 0.62 10^−6 cm/s. The “CLint (μL/min/million cells)” value (human hepatocytes) was 11 μL/min/million cells and the “Extraction Ratio (ER)” value (human hepatocytes) was 0.61.

With O=C1COc2ccccc2[C@H]2CC[C@H](CC2)OCC2[C@@H](NS(=O)(=O)C3CCOC3)CCCN12 (stereo in doubt) [Compound 73] the EC50 [1] was < 10 nM, the “Efflux ratio (ER)” value (MDCK-MDR1 cells) was >100 and the “Papp A → B (10^−6 cm/s)” value (MDCK-MDR1 cells) was 0.23 10^−6 cm/s. For the same molecule, the “CLint (μL/min/million cells)” value (human hepatocytes) was 21 μL/min/million cells and the “Extraction Ratio (ER)” value (human hepatocytes) was 0.76.

Cc1ccnc2c1[C@H]1CC[C@H](CC1)OCC1[C@@H](NS(=O)(=O)C(C)C)CCN1C(=O)CO2 (stereo in doubt) [Compound 93] gave an efflux ratio at 2 h, 3 μM (MDR1) of 11, a Papp A→B at 2 h, 3 μM (MDR1) of 4.7 ×10⁻⁶ cm/s and a hepatocyte CLint at 1 μM [2] of 20 µL/min/1e6 cells. For the same molecule, the “Extraction Ratio (ER)” value (human hepatocytes) was 0.75 and the “Mean cortical activation time (% vehicle treatment)” value (Sprague-Dawley rats) was 138.14 % vehicle treatment.

Molecule CC(C)S(=O)(=O)N[C@H]1CCCN2C(=O)COc3ncccc3C3CCC(CC3)OC[C@@H]12 (stereo in doubt) [Compound 15] has an efflux ratio at 2 h, 3 μM (MDR1) of 100, a Papp A→B at 2 h, 3 μM (MDR1) of 0.34 ×10⁻⁶ cm/s and a hepatocyte CLint at 1 μM [2] of 15 µL/min/1e6 cells. For the same molecule, the “Extraction Ratio (ER)” value (human hepatocytes) was 0.69 and the “Mean cortical activation time (% vehicle treatment)” value (Sprague-Dawley rats) was 107.59 % vehicle treatment.

Cc1ncnc2c1[C@H]1CC[C@H](CC1)OCC1[C@@H](NS(=O)(=O)C3CC3)CCCN1C(=O)CO2 (stereo in doubt) [Compound 68] gave an efflux ratio at 2 h, 3 μM (MDR1) of 72, a Papp A→B at 2 h, 3 μM (MDR1) of 0.24 ×10⁻⁶ cm/s and a hepatocyte CLint at 1 μM [2] of 3.9 µL/min/1e6 cells. For the same molecule, the “Extraction Ratio (ER)” value (human hepatocytes) was 0.37 and the “Mean cortical activation time (% vehicle treatment)” value (Sprague-Dawley rats) was 157.14 % vehicle treatment.

Molecule CC(C)S(=O)(=O)N[C@H]1CCN2C(=O)COc3ncccc3[C@H]3CC[C@H](CC3)OCC12 (stereo in doubt) [Compound 101] has an efflux ratio at 2 h, 3 μM (MDR1) of 14, a Papp A→B at 2 h, 3 μM (MDR1) of 3.9 ×10⁻⁶ cm/s and a hepatocyte CLint at 1 μM [2] of 19 µL/min/1e6 cells. For the same molecule, the “Extraction Ratio (ER)” value (human hepatocytes) was 0.74 and the “Mean cortical activation time (% vehicle treatment)” value (Sprague-Dawley rats) was 109.66 % vehicle treatment.

With Cc1ccnc2c1C1CCC(CC1)OC[C@H]1[C@@H](NS(C)(=O)=O)CCCN1C(=O)CO2 (stereo in doubt) [Compound 12] the efflux ratio at 2 h, 3 μM (MDR1) was 74, the Papp A→B at 2 h, 3 μM (MDR1) was 0.49 ×10⁻⁶ cm/s and the hepatocyte CLint at 1 μM [2] was 9.7 µL/min/1e6 cells. The “Extraction Ratio (ER)” value (human hepatocytes) was 0.59 and the “Mean cortical activation time (% vehicle treatment)” value (Sprague-Dawley rats) was 108.70 % vehicle treatment.

With Cc1ccnc2c1C1CCC(CC1)OC[C@H]1[C@@H](NS(=O)(=O)C(C)C)CCCN1C(=O)CO2 (stereo in doubt) [Compound 10] the efflux ratio at 2 h, 3 μM (MDR1) was > 100, the Papp A→B at 2 h, 3 μM (MDR1) was 0.38 ×10⁻⁶ cm/s and the hepatocyte CLint at 1 μM [2] was 9.4 µL/min/1e6 cells. For the same molecule, the “Extraction Ratio (ER)” value (human hepatocytes) was 0.58 and the “Mean cortical activation time (% vehicle treatment)” value (Sprague-Dawley rats) was 82.61 % vehicle treatment.

Cc1ccnc2c1[C@H]1CC[C@H](CC1)OCC1[C@@H](NS(=O)(=O)C3CC3)CCN1C(=O)CO2 (stereo in doubt) [Compound 92] gave an efflux ratio at 2 h, 3 μM (MDR1) of 18, a Papp A→B at 2 h, 3 μM (MDR1) of 3.4 ×10⁻⁶ cm/s and a hepatocyte CLint at 1 μM [2] of 24 µL/min/1e6 cells. The “Extraction Ratio (ER)” value (human hepatocytes) was 0.78 and the “Mean cortical activation time (% vehicle treatment)” value (Sprague-Dawley rats) was 97.94 % vehicle treatment.

CC(C)S(=O)(=O)N[C@H]1CCCN2C(=O)COc3ccccc3C3CCC(CC3)OC[C@@H]12 (stereo in doubt) [Compound 3] showed an efflux ratio at 2 h, 3 μM (MDR1) of 10, a Papp A→B at 2 h, 3 μM (MDR1) of 1.8 ×10⁻⁶ cm/s and a hepatocyte CLint at 1 μM [2] of 21 µL/min/1e6 cells. For the same molecule, the “Extraction Ratio (ER)” value (human hepatocytes) was 0.76 and the “Mean cortical activation time (% vehicle treatment)” value (Sprague-Dawley rats) was 204.79 % vehicle treatment.

For CC(C)S(=O)(=O)N[C@H]1CCCN2C(=O)COc3nccnc3[C@H]3CC[C@H](CC3)OCC12 (stereo in doubt) [Compound 66], the efflux ratio at 2 h, 3 μM (MDR1) was 88, the Papp A→B at 2 h, 3 μM (MDR1) was 0.22 ×10⁻⁶ cm/s and the hepatocyte CLint at 1 μM [2] was < 1.9 µL/min/1e6 cells. For the same molecule, the “Extraction Ratio (ER)” value (human hepatocytes) was <0.22 and the “Mean cortical activation time (% vehicle treatment)” value (Sprague-Dawley rats) was 141.30 % vehicle treatment.

With O=C1COc2ncncc2[C@H]2CC[C@H](CC2)OCC2[C@@H](NS(=O)(=O)C3CC3)CCCN12 (stereo in doubt) [Compound 97] the efflux ratio at 2 h, 3 μM (MDR1) was 44, the Papp A→B at 2 h, 3 μM (MDR1) was 0.42 ×10⁻⁶ cm/s and the hepatocyte CLint at 1 μM [2] was 5.2 µL/min/1e6 cells. For the same molecule, the “Extraction Ratio (ER)” value (human hepatocytes) was 0.43 and the “Mean cortical activation time (% vehicle treatment)” value (Sprague-Dawley rats) was 79.25 % vehicle treatment.

Work on Cc1ccc2c(c1)C1CCC(CC1)OC[C@H]1[C@@H](NS(C)(=O)=O)CCCN1C(=O)CO2 (stereo in doubt) [Compound 17] yielded an efflux ratio at 2 h, 3 μM (MDR1) of 40, a Papp A→B at 2 h, 3 μM (MDR1) of 0.84 ×10⁻⁶ cm/s and a hepatocyte CLint at 1 μM [2] of 7.5 µL/min/1e6 cells. For the same molecule, the “Extraction Ratio (ER)” value (human hepatocytes) was 0.53 and the “Mean cortical activation time (% vehicle treatment)” value (Sprague-Dawley rats) was 212.31 % vehicle treatment.

Source: patent US12006330B2, “Substituted macrocyclic compounds and related methods of treatment” (Alkermes, Inc., priority 2020, dated 2024)
